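Method: 48-hour compound exposure of cells in 96-well plates, five concentrations, linear interpolation of endpoints. GI50 is the concentration that inhibits growth by half.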 The source made the active and inactive calls. Rule as the data show it: active = GI50 up to about 1.1 µM and inactive = higher.
What was measured:
Assay in all cases: NCI anticancer screen, dose series, 48 h
DMS-114 = tested on: DMS-114
KM-20L2 = tested on: KM-20L2
LXFL 529 = tested on: LXFL 529
DLD-1 = tested on: DLD-1
HOP-18 = tested on: HOP-18
DMS-273 = tested on: DMS-273
SNB-78 = tested on: SNB-78
RXF 631 = tested on: RXF 631
M19-MEL = tested on: M19-MEL

Measured: GI50

O=C1NC(=O)C2C(=O)NC(=O)C1C2c1c(Cl)cccc1Cl (stereo unspecified)
inactive: DMS-114 > 38.4 µM | KM-20L2 > 49.5 µM | LXFL 529 > 100 µM | DLD-1 > 43.3 µM | HOP-18 > 100 µM | DMS-273 > 42.7 µM | SNB-78 > 100 µM | RXF 631 > 100 µM

CCC(=O)C(C)C1=Nc2nnc(CCCCCCCc3nnc4n3C(=O)C(C(C)C(=O)CC)=N4)n2C1=O (stereo unspecified)
inactive: DMS-114 > 100 µM | KM-20L2 > 100 µM | LXFL 529 > 100 µM | HOP-18 > 100 µM | M19-MEL > 100 µM

COC1(OC)CC2C(=O)N(Cc3ccccc3)C1C(S(=O)(=O)c1ccccc1)C2S(=O)(=O)c1ccccc1 (stereo unspecified)
inactive: DMS-114 3.7 µM | KM-20L2 17.4 µM | LXFL 529 3.48 µM | DLD-1 3.52 µM | HOP-18 17.2 µM | DMS-273 14.6 µM | SNB-78 18.5 µM | RXF 631 16.7 µM | M19-MEL 11.1 µM

NC1=C(O)c2cccc3cccc(c23)C1=O
inactive: DMS-114 > 100 µM | KM-20L2 > 100 µM | LXFL 529 > 100 µM | DLD-1 > 100 µM | HOP-18 > 100 µM | DMS-273 > 100 µM | SNB-78 > 100 µM | RXF 631 > 100 µM | M19-MEL > 100 µM

CC(=O)NNc1nc(C)c(C(=O)NNC(=O)C(=O)Nc2ccc(Cl)cc2Cl)s1
inactive: DMS-114 33.2 µM | KM-20L2 40.1 µM | LXFL 529 29.4 µM | DLD-1 38.4 µM | SNB-78 36.6 µM | M19-MEL 38.4 µM

Cc1cccc(N2C(=O)C(=O)C(c3nc4ccccc4s3)C(=O)C2=O)c1C
inactive: DMS-114 > 100 µM | KM-20L2 > 100 µM | LXFL 529 > 100 µM | DLD-1 > 100 µM | HOP-18 > 100 µM | DMS-273 > 100 µM | SNB-78 > 100 µM | RXF 631 > 100 µM | M19-MEL > 100 µM

CC(=O)/C(=N\O)C(=O)Nc1ccc(Cl)cc1Cl
inactive: DMS-114 > 100 µM | KM-20L2 > 100 µM | LXFL 529 > 100 µM | DLD-1 > 100 µM | HOP-18 43.1 µM | DMS-273 > 100 µM | SNB-78 > 100 µM | M19-MEL > 100 µM

CC1(C)CC(c2c[nH]c3ccccc23)=CC2=Nc3ccccc3C21O (stereo unspecified)
inactive: DMS-114 > 100 µM | KM-20L2 > 100 µM | LXFL 529 47.4 µM | DLD-1 > 100 µM | DMS-273 > 100 µM | SNB-78 76 µM | M19-MEL > 100 µM

O=C(Nc1ccccc1)Oc1ccccc1C1CCCCC1
inactive: DMS-114 12 µM | LXFL 529 22.5 µM | DLD-1 13.9 µM | HOP-18 29.3 µM | DMS-273 15.2 µM | SNB-78 17.7 µM | M19-MEL 16 µM

Cc1c(C(=O)C/C(=N/NC(=O)c2ccccc2O)C(=O)Nc2ccccc2C(C)C)[n+]([O-])c2ccccc2[n+]1[O-]
inactive: DMS-114 23.1 µM | KM-20L2 39.7 µM | LXFL 529 25.1 µM | DLD-1 31.8 µM | HOP-18 > 100 µM | DMS-273 31.8 µM | SNB-78 84.7 µM | M19-MEL 46.5 µM

CCCCCCCCCCC(=O)CCCCCCC(=O)O
inactive: DMS-114 20.3 µM | LXFL 529 18.2 µM | DLD-1 19 µM | HOP-18 16.9 µM | DMS-273 19.3 µM | SNB-78 69.8 µM | RXF 631 19.9 µM | M19-MEL 27 µM

C[C@H](NS(=O)(=O)c1ccc(NC(=O)c2ccccc2)cc1)C(=O)O
inactive: KM-20L2 > 100 µM | LXFL 529 > 100 µM | DLD-1 > 100 µM | HOP-18 > 100 µM | DMS-273 > 100 µM | M19-MEL > 100 µM

CN(C)CC1CCCC/C1=N\OC(=O)c1ccccc1 (stereo unspecified)
inactive: DMS-114 > 100 µM | KM-20L2 > 100 µM | LXFL 529 > 100 µM | DLD-1 > 100 µM | HOP-18 > 100 µM | DMS-273 > 100 µM | SNB-78 > 100 µM | RXF 631 > 100 µM | M19-MEL > 100 µM

N#Cc1ccc(Oc2cccc(Oc3ccccc3)c2)cc1C#N
inactive: DMS-114 31.9 µM | KM-20L2 > 10 µM | LXFL 529 61 µM | DLD-1 > 10 µM | HOP-18 > 10 µM | SNB-78 > 10 µM | RXF 631 79.6 µM | M19-MEL > 10 µM

O=C1C(CN2CCCCC2)CCCC1CN1CCCCC1 (stereo unspecified)
inactive: KM-20L2 14.4 µM | LXFL 529 15 µM | DLD-1 10.1 µM | HOP-18 17.2 µM | DMS-273 43.2 µM | SNB-78 21.4 µM

COc1cc2cc3c4cc(OC)c(OC)cc4cc[n+]3c(C)c2cc1OC.O=C([O-])CS(=O)(=O)O
inactive: DMS-114 3.34 µM | KM-20L2 > 100 µM | LXFL 529 10.8 µM | DLD-1 > 100 µM | HOP-18 > 100 µM | DMS-273 63.8 µM | SNB-78 48.4 µM | M19-MEL 69 µM

c1ccc2c(CNCCCCCCCCCCCCNCc3cccc4ccccc34)cccc2c1
inactive: KM-20L2 1.84 µM | LXFL 529 1.83 µM | DLD-1 1.6 µM | HOP-18 2.84 µM | DMS-273 91.8 µM | SNB-78 1.9 µM | M19-MEL 1.81 µM

COc1cc(CO)cc2c1[nH]c1ccccc12 [KOENOLINE]
inactive: DMS-114 > 25 µM | KM-20L2 > 25 µM | LXFL 529 > 25 µM | DLD-1 > 25 µM | HOP-18 > 25 µM | DMS-273 > 25 µM | SNB-78 > 25 µM | M19-MEL > 25 µM
